Source: ChEMBL document CHEMBL1201862, “PubChem BioAssay data set” (2004)
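Test compounds were applied to cells in 96-well plates for 48 hours at 5 doses. Abbreviation: GI50, concentration required for 50% inhibition of growth.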 The source made the active and inactive calls. No stated cut-off is given here; in the data, active = GI50 up to about 1.1 µM and inactive = higher.

Key:
Experiment in all cases: growth of human tumour cells (NCI), 48 h
M14 = test system: M14
SNB-75 = test system: SNB-75
PC-3 = test system: PC-3
SF-295 = test system: SF-295
SK-MEL-2 = test system: SK-MEL-2
786-0 = test system: 786-0
SK-OV-3 = test system: SK-OV-3
T47D = test system: T47D
MCF7 = test system: MCF7
U-251 = test system: U-251
HOP-62 = test system: HOP-62
IGROV-1 = test system: IGROV-1
Hs-578T = test system: Hs-578T
UO-31 = test system: UO-31
UACC-257 = test system: UACC-257
HOP-92 = test system: HOP-92
OVCAR-4 = test system: OVCAR-4
NCI-H23 = test system: NCI-H23
SF-539 = test system: SF-539
HL-60 = test system: HL-60

Row | Structure (SMILES) | GI50 (M14) | GI50 (SNB-75) | GI50 (PC-3) | GI50 (SF-295) | GI50 (SK-MEL-2) | GI50 (786-0) | GI50 (SK-OV-3) | GI50 (T47D) | GI50 (MCF7) | GI50 (U-251) | GI50 (HOP-62) | GI50 (IGROV-1) | GI50 (Hs-578T) | GI50 (UO-31) | GI50 (UACC-257) | GI50 (HOP-92) | GI50 (OVCAR-4) | GI50 (NCI-H23) | GI50 (SF-539) | GI50 (HL-60)
1 | C[N+]12C=CC=C1C(N1CCCC1)c1scc(-c3ccc(F)cc3)c12 (stereo not given) | 69.8 µM (inactive) | 20.4 µM (inactive) | 27.1 µM (inactive) | 58.7 µM (inactive) | 10.5 µM (inactive) | 47.2 µM (inactive) | > 100 µM (inactive) | 5.93 µM (inactive) | 22 µM (inactive) | 6.71 µM (inactive) | 63.7 µM (inactive) | 13.1 µM (inactive) | 21.5 µM (inactive) | > 100 µM (inactive) |  |  |  |  |  | 
2 | COC(=O)[C@@H]1C=C[C@@H](C#N)n2c(=O)n(-c3ccccc3)c(=O)n21 | 25.9 µM (inactive) | 26.7 µM (inactive) |  | 23.8 µM (inactive) |  | 25.2 µM (inactive) | 47.5 µM (inactive) | 24.2 µM (inactive) | 19.5 µM (inactive) | 33.8 µM (inactive) | 13.3 µM (inactive) | 32.6 µM (inactive) | 23.7 µM (inactive) | 41.9 µM (inactive) | 39.4 µM (inactive) | 45.4 µM (inactive) | 36.3 µM (inactive) | 36.9 µM (inactive) | 20.8 µM (inactive) | 
3 | O=[N+]([O-])c1ccc(/C=C/c2cc(-c3ccccc3)nc3ccc4ccccc4c23)cc1 | > 100 µM (inactive) | 16.9 µM (inactive) | > 100 µM (inactive) | > 100 µM (inactive) |  | > 100 µM (inactive) | > 100 µM (inactive) |  | 57 µM (inactive) | > 100 µM (inactive) | > 100 µM (inactive) | > 100 µM (inactive) | > 100 µM (inactive) | > 100 µM (inactive) | > 100 µM (inactive) |  | > 100 µM (inactive) | > 100 µM (inactive) | > 100 µM (inactive) | > 100 µM (inactive)
4 | CC(=O)c1nc2ccccc2n1C(C)C(=O)c1ccccc1 (stereo not given) | 42.8 µM (inactive) | > 100 µM (inactive) | 72.1 µM (inactive) | 54.6 µM (inactive) |  | 36.9 µM (inactive) | 69 µM (inactive) |  | 22.2 µM (inactive) | 57.3 µM (inactive) | 57.1 µM (inactive) | 30.2 µM (inactive) | 81.1 µM (inactive) | 50.7 µM (inactive) | 54.6 µM (inactive) | 69.3 µM (inactive) | 47.4 µM (inactive) | > 100 µM (inactive) | > 100 µM (inactive) | 29.6 µM (inactive)
5 | O=C1CN(c2cccc(Cl)c2)C(=O)CN1NCNN1CC(=O)N(c2cccc(Cl)c2)CC1=O | > 100 µM (inactive) | 38.3 µM (inactive) | > 100 µM (inactive) | > 100 µM (inactive) |  | > 100 µM (inactive) | > 100 µM (inactive) |  | > 100 µM (inactive) | > 100 µM (inactive) | > 100 µM (inactive) | > 100 µM (inactive) | > 100 µM (inactive) | > 100 µM (inactive) | > 100 µM (inactive) | > 100 µM (inactive) | > 100 µM (inactive) | > 100 µM (inactive) | > 100 µM (inactive) | > 100 µM (inactive)
6 | Fc1ccc(NCn2nc(COc3ccccc3Cl)n(/N=C/c3ccc(-c4ccc(Cl)cc4Cl)o3)c2=S)cc1Cl | 28.5 µM (inactive) |  | 38.5 µM (inactive) | 33 µM (inactive) | 25 µM (inactive) | 27 µM (inactive) | 46.6 µM (inactive) | 27.7 µM (inactive) | 26.7 µM (inactive) | 25.8 µM (inactive) | 52.4 µM (inactive) | 29.2 µM (inactive) | 82.6 µM (inactive) | 32.9 µM (inactive) | 41.5 µM (inactive) |  | 53.2 µM (inactive) | 27.4 µM (inactive) | 31.3 µM (inactive) | 15.8 µM (inactive)
7 | COc1ccc(N2C(=O)CC(c3c[nH]c4ccccc34)C2=O)cc1 (stereo not given) | > 100 µM (inactive) |  | > 100 µM (inactive) | > 100 µM (inactive) | > 100 µM (inactive) | > 100 µM (inactive) | > 100 µM (inactive) |  | > 100 µM (inactive) | > 100 µM (inactive) | > 100 µM (inactive) | > 100 µM (inactive) | 9.08 µM (inactive) | > 100 µM (inactive) | > 100 µM (inactive) | > 100 µM (inactive) |  | > 100 µM (inactive) | > 100 µM (inactive) | > 100 µM (inactive)
8 | COc1cc(C2c3cc4c(cc3[C@@H](Nc3ccccc3)C3COC[C@H]23)OCO4)cc(OC)c1O (stereo not given in full) | 2.59 µM (inactive) | 2.23 µM (inactive) | 3.33 µM (inactive) | 0.485 µM (active) |  | 1.1 µM (active) | 2.92 µM (inactive) | 1.19 µM (inactive) | 0.512 µM (active) | 0.897 µM (active) | 1.48 µM (inactive) | 8.34 µM (inactive) | 0.736 µM (active) | 1.15 µM (inactive) | 14.6 µM (inactive) |  | 16.9 µM (inactive) |  | 1.26 µM (inactive) | 0.573 µM (active)
9 | CC(=O)OCC1OC(n2c3c(c(-c4cccc5ccccc45)c(C#N)c2=S)CCCC3)C(OC(C)=O)C(OC(C)=O)C1OC(C)=O (stereo not given) | 66.7 µM (inactive) |  | 27.7 µM (inactive) | > 100 µM (inactive) | 20.7 µM (inactive) | > 100 µM (inactive) | > 100 µM (inactive) | > 100 µM (inactive) | > 100 µM (inactive) | > 100 µM (inactive) | > 100 µM (inactive) | > 100 µM (inactive) |  | 31.3 µM (inactive) | > 100 µM (inactive) | 0.112 µM (active) | > 100 µM (inactive) | > 100 µM (inactive) | > 100 µM (inactive) | > 100 µM (inactive)
10 | O=C(O)COc1ccc(C(=O)/C(SS/C(C(=O)c2ccc(OCC(=O)O)c(Cl)c2Cl)=C2\C=C(c3ccc(F)cc3)SS2)=C2/C=C(c3ccc(F)cc3)SS2)c(Cl)c1Cl | 23.6 µM (inactive) | 17.2 µM (inactive) |  | 20.8 µM (inactive) | 15.6 µM (inactive) | 27.9 µM (inactive) | 41.7 µM (inactive) | 3.13 µM (inactive) | 36.8 µM (inactive) | 5.75 µM (inactive) | 33.9 µM (inactive) | 10.8 µM (inactive) | 3.83 µM (inactive) | 15.7 µM (inactive) | 27.5 µM (inactive) | 3.75 µM (inactive) | 13.4 µM (inactive) | 13.2 µM (inactive) | 9.02 µM (inactive) | 2.37 µM (inactive)
11 | OCC1OC(Oc2cc(O)cc(/C=C\c3ccc(O)cc3)c2)C(O)C(O)C1O (stereo not given) |  | > 100 µM (inactive) | > 100 µM (inactive) | > 100 µM (inactive) | > 100 µM (inactive) | > 100 µM (inactive) | > 100 µM (inactive) |  | > 100 µM (inactive) | > 100 µM (inactive) | > 100 µM (inactive) | > 100 µM (inactive) | > 100 µM (inactive) | > 100 µM (inactive) | > 100 µM (inactive) | > 100 µM (inactive) | > 100 µM (inactive) |  | > 100 µM (inactive) | > 100 µM (inactive)
